We go through one substance from US20020076443A1, “Multiple phase cross-linked compositions and uses thereof” (priority 2000, published 2002).

The conditions of data set [1]: cited from earlier work.
A short description of data set [2]: Water solubility. Format: physicochemical. Particulars: clinical grade dextran of about 70 kDa versus HSA.

Turning to dextran, in data set [1], the water solubility entry is “about 30 mg/mL”. For the same substance, the “water solubility, fold lower than HSA” value in data set [2] is above 10 fold.
